# Data from patent publication US20060178394A1, “Pharmaceutical compositions comprising apomorphine for pulmonary inhalation” (priority 2003, published 2006).
# “Also recorded” adds a separate entry of the source. Counter-ions that a name gives are not always drawn. Like-named read-outs stand apart in the source and are kept apart here.
# Assays:
# [1] = tested on: patients (quality of erection in response to VSS); experiment: Clinical study (Example 14): erection response to visual sexual stimulation after DPI inhalation; type: in vivo, human; details: for Number of patients with quality grade 0, No effect / Number of patients with quality grade 1, Some tumescence, no rigidity / Number of patients with quality grade 2, Some tumescence and rigidity / Number of patients with quality grade 3, Partial erection / Number of patients with quality grade 4, Full erection: ITT; for Effective? / Responding (subjects with grade 3 or 4 erection) / Response rate: ITT population; for Duration, Mean: 60 min test period
# Protocol: During each treatment, a patient was administered the given dose and was left alone to watch an hour of visual sexual stimulation (VSS). […] After 60 minutes, the patient's were asked to rate the quality and duration of their response to VSS. In this regard, the quality of response is defined as one of […]: 0: no effect; 1: some tumescence, no rigidity; 2: some tumescence, some rigidity, but not suitable for penetration; 3: rigidity and tumescence that would enable penetration but is not complete erection; 4: complete erection.
# This study was conducted in a double blind fashion, where both the healthcare professional administering the treatment and the patient were not informed as to the actual dose being administered. The patients who participated in this study were randomised.
# The primary measure of efficacy, as defined in the protocol, was the proportion of subjects reporting a grade 3 or 4 erection, using general criteria defined in the International Index of Erectile Function (IIEF). Grade 3 and 4 erections are regarded as “sufficient for successful intercourse”.
# [2] = Adverse event monitoring in the clinical study of Example 14; type: in vivo, human; details: for All adverse events: subjects with AE, %: safety population
# Source text: Adverse events were monitored during each dosing period. The proportion of patients experiencing one or more adverse events was similar in all four treatment groups. No serious adverse events were observed and no adverse event led to the premature discontinuation of any subject. All adverse events were mild or moderate in severity and occurred in a small percentage of the groups treated. Table 9 is a summary of all treatment related adverse events, and Table 10 breaks treatment-related adverse events down by body system.
# [3] = Blood analysis 70 minutes after inhalation (Example 14); type: in vivo; details: human, inhaled, 34 patients
# Protocol: For each patient, blood samples were taken 70 minutes after inhalation. The blood samples were analysed, and the blood levels for 400 and 800 microgram doses of apomorphine for each of the 34 patients that completed the test are set forth in Table 11 in nanograms per millilitre. It should be appreciated from the data discussed in Example 15 below that these blood samples were actually taken long after the plasma concentration peak.
# [4] = Phase I study: plasma pharmacokinetics of single inhaled doses (Example 15); type: in vivo, human; details: for Tmax: median values; for Cmax: healthy male volunteers
# Protocol: A phase I, double blind, randomised, placebo controlled study was conducted examining the safety, tolerability and pharmacokinetics of single 600 μg, 900 μg and 1200 μg doses in 16 healthy male volunteers. No evaluation for efficacy was conducted during the clinical study.
# Pharmacokinetic plasma sampling was conducted pre-dose and at the following intervals post dose administration: 1 minute, 3 minutes, 5 minutes, 10 minutes, 15 minutes, 30 minutes, 45 minutes, 1 hour, 1.5 hours, 2 hours, 4 hours, 8 hours, 12 hours and 24 hours.
# The following pharmacokinetic parameters were derived from the plasma apomorphine concentrations by non-compartmental analysis.
# It should be noted that the tmax is represented as median values.
# [5] = Solubility of apomorphine HCl in HFA propellant systems (solution pMDI); type: physicochemical
# Protocol: However, conventional solution pMDI techniques are not believed to be appropriate for the delivery of apomorphine or its pharmaceutically acceptable salts with HFA propellants. Specifically, apomorphine base is too unstable to be formulated using current approaches and apomorphine salts are too polar to be formulated as solutions in HFA propellants. […] Even with such a system, a solution concentration of <25 μg/dose is achieved, which is well below the effective doses described above in connection with Dry Powder Inhalers.
# [6] = intranasal delivery, clinical setting; Nastech studies; cited from earlier work
# [7] = Drug retention and degradation in PE and PVC blisters
# [8] = 200 μg inhaled, grade 3 and 4 responders
# [9] = 400 μg inhaled, listed as apomorphine HCl, hydrochloride
# [10] = 400 μg inhaled, grade 3 and 4 responders
# [11] = 800 μg inhaled, listed as apomorphine HCl, hydrochloride
# [12] = male, human, plasma, inhaled or intranasal, 600 ug, 600 μg single inhaled dose, mean ± standard error
# [13] = male, human, plasma, inhaled or intranasal, 900 ug, 900 μg single inhaled dose, mean ± standard error
# [14] = male, human, plasma, inhaled or intranasal, 1200 ug, 1200 μg single inhaled dose, mean ± standard error
smiles,measurement,setting,value
"CN1CCc2cccc3c2[C@H]1Cc1ccc(O)c(O)c1-3 [Apomorphine HCl, apomorphine hydrochloride]",Duration,[1]; 200 μg inhaled,24 min
same,"Duration, Max",[1]; 200 μg inhaled,47 min
same,"Duration, Median",[1]; 200 μg inhaled,31.5 min
same,Onset of an erection in one patient,"[1]; 200 μg inhaled, FIG. 12",about 40 minutes
same,"Number of patients with quality grade 0, No effect",[1]; 200 μg inhaled,11
same,"Number of patients with quality grade 1, Some tumescence, no rigidity",[1]; 200 μg inhaled,10
same,"Number of patients with quality grade 2, Some tumescence and rigidity",[1]; 200 μg inhaled,6
same,"Number of patients with quality grade 3, Partial erection",[1]; 200 μg inhaled,6
same,"Number of patients with quality grade 4, Full erection",[1]; 200 μg inhaled,2
same,Effective?,[1]; 200 μg inhaled,No
same,Responding (subjects with grade 3 or 4 erection),"[1]; 200 μg inhaled, 35 evaluated",8
same,Response rate,"[1]; 200 μg inhaled, hydrochloride",22.9%
same,"Duration, Mean","[1]; 200 μg inhaled, N 8",33.3 min
same,"Onset, Max",[1]; [8],20 min post dose
same,"Onset, Min",[1]; [8],8 min post dose
same,"Onset, Mean","[1]; 200 μg inhaled, grade 3 and 4 responders, N 8",13 min post dose
same,Duration,[1]; 400 μg inhaled,4 min
same,"Duration, Max",[1]; 400 μg inhaled,54 min
same,"Duration, Median",[1]; 400 μg inhaled,38 min
same,Onset of an erection in one patient,"[1]; 400 μg inhaled, FIG. 13",about 3 minutes
same,"Number of patients with quality grade 0, No effect",[1]; 400 μg inhaled,8
same,"Number of patients with quality grade 1, Some tumescence, no rigidity",[1]; 400 μg inhaled,6
same,"Number of patients with quality grade 2, Some tumescence and rigidity",[1]; 400 μg inhaled,3
same,"Number of patients with quality grade 3, Partial erection",[1]; 400 μg inhaled,8
same,"Number of patients with quality grade 4, Full erection",[1]; 400 μg inhaled,8
same,Responding (subjects with grade 3 or 4 erection),"[1]; 400 μg inhaled, 33 evaluated",16
same,Effective?,"[1]; 400 μg inhaled, listed as apomorphine HCL, hydrochloride",effective
same,Effective?,[1]; [9],effective and Yes
same,Response rate,[1]; [9],48.5%
same,"Duration, Mean","[1]; 400 μg inhaled, N 16",31.1 min
same,"Onset, Max",[1]; [10],28 min post dose
same,"Onset, Median",[1]; [10],8 min post dose
same,"Onset, Mean","[1]; 400 μg inhaled, grade 3 and 4 responders, N 16",11 min post dose
same,"Onset, Min","[1]; 400 μg inhaled, grade 3 and 4 responders, hydrochloride",3 min post dose
same,Duration,[1]; 800 μg inhaled,6 min
same,"Duration, Max",[1]; 800 μg inhaled,54 min
same,"Duration, Median",[1]; 800 μg inhaled,36 min
same,Onset of an erection in one patient,"[1]; 800 μg inhaled, FIG. 14",about 4 minutes
same,"Number of patients with quality grade 1, Some tumescence, no rigidity",[1]; 800 μg inhaled,3
same,"Number of patients with quality grade 2, Some tumescence and rigidity",[1]; 800 μg inhaled,7
same,"Number of patients with quality grade 3, Partial erection",[1]; 800 μg inhaled,6
same,"Number of patients with quality grade 4, Full erection",[1]; 800 μg inhaled,14
same,Responding (subjects with grade 3 or 4 erection),"[1]; 800 μg inhaled, 34 evaluated",20
same,Effective?,"[1]; 800 μg inhaled, listed as apomorphine HCL, hydrochloride",effective
same,Effective?,[1]; [11],effective and Yes
same,Response rate,[1]; [11],58.8%
same,"Duration, Mean","[1]; 800 μg inhaled, N 19",31.2 min
same,"Onset, Max","[1]; 800 μg inhaled, grade 3 and 4 responders",17 min post dose
same,"Onset, Mean","[1]; 800 μg inhaled, grade 3 and 4 responders, N 19",10 min post dose
same,"Onset, Min","[1]; 800 μg inhaled, grade 3 and 4 responders, hydrochloride",3 min post dose
same,Lowest inhaled dose at which the clinical effect is observed,[1]; pulmonary inhalation,400 µg
same,"Treatment-related AE: Cough, %",[2]; 200 μg inhaled,3%
same,"Treatment-related AE: Dizziness, %",[2]; 200 μg inhaled,3%
same,"Treatment-related AE: Nasal congestion, %",[2]; 200 μg inhaled,3%
same,"Treatment-related AE: Nervous system disorders, %",[2]; 200 μg inhaled,3%
same,"Treatment-related AE: Respiratory, thoracic & mediastinal disorders, %",[2]; 200 μg inhaled,3%
same,"Treatment-related AE: Sneezing, %",[2]; 200 μg inhaled,3%
same,"Treatment-related adverse events: subjects with AE, %",[2]; 200 μg inhaled,6%
same,"All adverse events: subjects with AE, %",[2]; 200 μg inhaled,9%
same,"Treatment-related AE: Dry throat, %",[2]; 400 μg inhaled,3%
same,"Treatment-related AE: Pharyngolaryngeal pain, %",[2]; 400 μg inhaled,6%
same,"Treatment-related AE: Respiratory, thoracic & mediastinal disorders, %",[2]; 400 μg inhaled,9%
same,"Treatment-related adverse events: subjects with AE, %",[2]; 400 μg inhaled,9%
same,"All adverse events: subjects with AE, %",[2]; 400 μg inhaled,9%
same,"Treatment-related AE: Dizziness, %",[2]; 800 μg inhaled,6%
same,"Treatment-related AE: Gastrointestinal disorders, %",[2]; 800 μg inhaled,3%
same,"Treatment-related AE: Nausea, %",[2]; 800 μg inhaled,3%
same,"Treatment-related AE: Nervous system disorders, %",[2]; 800 μg inhaled,6%
same,"Treatment-related adverse events: subjects with AE, %",[2]; 800 μg inhaled,6%
same,"All adverse events: subjects with AE, %","[2]; 800 μg inhaled, hydrochloride",6%
same,concentration at 70 min,"[3]; 400 μg, 400 μg inhaled, read-out: Blood level 70 minutes after dosing, Mean",0.215 ng/mL
same,concentration at 70 min,"[3]; 400 μg, 400 μg inhaled, read-out: Blood level 70 minutes after dosing, Median",0.217 ng/mL
same,concentration at 70 min,"[3]; 800 μg, 800 μg inhaled, read-out: Blood level 70 minutes after dosing, Mean",0.608 ng/mL
same,concentration at 70 min,"[3]; 800 μg, 800 μg inhaled, read-out: Blood level 70 minutes after dosing, Median",0.567 ng/mL
same,AUC0-∞,"[4]; 600 μg single inhaled dose, mean ± standard error",176.4 ± 26.9 ng·min/mL
same,Tmax,"[4]; 900 μg single inhaled dose, hydrochloride",1 min
same,Tmax,"[4]; 1200 μg single inhaled dose, hydrochloride",1 min
same,"Dose proportionality for Cmax, AUC0-∞ and AUC0-t","[4]; 600, 900, 1200 μg inhaled",demonstrated
same,AUC(0-inf),"[4]; male, human, plasma, inhaled or intranasal, 600 ug, 600 μg inhaled, comparison table with Uprima",2.2 ng·h/mL
same,Cmax,[4]; [12],3.5 to 4.9 ng/mL
same,AUC(0-t),[4]; [12],2.23 ng·h/mL
same,Tmax,"[4]; male, human, plasma, inhaled or intranasal, 600 ug, 600 μg single inhaled dose, read-out: tmax (converted)",3 min
same,AUC(0-inf),"[4]; male, human, plasma, inhaled or intranasal, 900 ug, 900 μg inhaled, comparison table with Uprima",3.4 ng·h/mL
same,Cmax,[4]; [13],7.4 to 8.8 ng/mL
same,AUC(0-inf),[4]; [13],3.84 ng·h/mL
same,AUC(0-t),[4]; [13],3.42 ng·h/mL
same,Tmax,"[4]; male, human, plasma, inhaled or intranasal, 900 ug, 900 μg single inhaled dose, read-out: tmax (converted)",1 min
same,AUC(0-inf),"[4]; male, human, plasma, inhaled or intranasal, 1200 ug, 1200 μg inhaled, comparison table with Uprima",5.5 ng·h/mL
same,Cmax,[4]; [14],9.2 to 16.2 ng/mL
same,AUC(0-inf),[4]; [14],5.5 ng·h/mL
same,AUC(0-t),[4]; [14],4.93 ng·h/mL
same,Tmax,"[4]; male, human, plasma, inhaled or intranasal, 1200 ug, 1200 μg single inhaled dose, read-out: tmax (converted)",1 min
same,Ethanol required for suitable or acceptable solubility,[5]; HFA propellant solution pMDI systems,at least 50%
same,Solution concentration achieved,[5]; HFA propellant system with at least 50% ethanol,< 25 μg/dose
same,Dose that can be administered without causing unacceptable side effects,[6],more than 2 mg
same,"Mean drug retention, PE blisters",[7]; DUSA,43.6 µg
same,"Mean drug retention, PVC blisters",[7]; DUSA,12.9 µg
same,"Mean drug retention, PE blisters",[7]; Initial stability,44.7 µg
same,"Mean drug retention, PVC blisters",[7]; Initial stability,13.9 µg
same,Chemical stability in the presence of polyethylene (PE blisters),"[7]; initial stability data, related substance peaks after 1 month, hydrochloride",chemically degrades; also recorded: degradation of the formulated product takes place
